Laboratory results reported in ChEMBL document CHEMBL4402540, “Structure-Activity Relationship Studies of Small Molecule Modulators of the Staphylococcal Accessory Gene Regulator” (J Med Chem, 2020).
Where a SMILES comes first, the peptide text is derived from it. Bridges are numbered along the chain shown (N, C = ends). [ ]: non-standard residue; d: D form. The star is where a group is joined. 6FAM = O=C1OC2(c3ccc(O)cc3Oc3cc(O)ccc32)c2cc(C(=O)*)ccc21; Biotin = O=C1N[C@H]2[C@H](CS[C@H]2CCCCC(=O)*)N1; NMeF = CN[C@@H](Cc1ccccc1)C(=O)O; NMeL = CN[C@@H](CC(C)C)C(=O)O; NMeS = CN[C@@H](CO)C(=O)O; Pent4ynoyl = C#CCCC(=O)*; Dap = NC[C@H](N)C(=O)O; AEEA = NCCOCCOCC(=O)O; Aoc = NCCCCCCCC(=O)O; Ava = NCCCCC(=O)O; Mpa = O=C(O)CCS

Key:
[1] = target: T1, Chloramphenicol acetyltransferase (Staphylococcus epidermidis) (UniProt D2JCN2); assay: Activation of Chloramphenicol acetyltransferase activity in Staphylococcus epidermidis Tu3298 at 200 nM and measured every 15 sec for 20 mins (reference value: 12.5 U/mg)
T1 sequence (whole entry): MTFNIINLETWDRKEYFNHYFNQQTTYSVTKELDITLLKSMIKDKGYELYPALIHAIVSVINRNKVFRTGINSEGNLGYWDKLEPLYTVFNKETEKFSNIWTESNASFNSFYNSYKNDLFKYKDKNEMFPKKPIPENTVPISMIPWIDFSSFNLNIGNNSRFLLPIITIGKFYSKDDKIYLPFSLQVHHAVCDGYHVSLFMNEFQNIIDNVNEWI

[2] = Inhibition of AgrC-4 in Staphylococcus aureus AH1872 incubated for 24 hrs by fluorescence assay
[3] = Inhibition of AgrC-1 in Staphylococcus aureus AH1677 incubated for 24 hrs by fluorescence assay
[4] = Inhibition of AgrC-3 in Staphylococcus aureus AH1747 incubated for 24 hrs by fluorescence assay
[5] = Inhibition of AgrC-2 in Staphylococcus aureus AH430 incubated for 24 hrs by fluorescence assay
[6] = Inhibition of AgrC-1 in Staphylococcus aureus RN9222 incubated for 1 hr in presence of AIP agonist by beta-lactamase reporter gene assay
[7] = Inhibition of AgrC-2 in Staphylococcus aureus RN9372 incubated for 1 hr in presence of AIP agonist by beta-lactamase reporter gene assay
[8] = Inhibition of AgrC-2 in Staphylococcus aureus RN9372 incubated for 60 to 90 mins in presence of AIP agonist by beta-lactamase reporter gene assay
[9] = Inhibition of AgrC-1 in Staphylococcus aureus
[10] = Inhibition of AgrC-2 in Staphylococcus aureus
[11] = Inhibition of AgrC-4 in Staphylococcus aureus
[12] = Inhibition of AgrC-1 Staphylococcus epidermidis AH3408 incubated for 24 hrs by fluorescence assay

Compound | IC50 [2] [nM] | IC50 [3] [nM] | IC50 [4] [nM] | IC50 [5] [nM] | also measured
CC(C)[C@H](NC(=O)[C@H](CO)NC(=O)[C@H](CC(=O)O)NC(=O)CN)C(=O)N[C@H]1CSC(=O)[C@H](Cc2ccccc2)NC(=O)[C@H](Cc2ccc(O)cc2)NC(=O)[C@H](CO)NC(=O)[C@H](C)NC1=O (H-GDSVCASYF; thioester 5-C) |  |  |  |  | Activity [1]: 15.6 U/mg
CC(C)C[C@@H]1NC(=O)[C@H](CO)NC(=O)[C@H](CO)NC(=O)CCSC(=O)[C@H](Cc2ccccc2)N(C)C1=O ([Mpa]SSL[NMeF]; thioester 1-C) | 0.0957 | 0.257 | 0.329 | 0.9 | IC50 [6]: 1680 nM; IC50 [7]: 47300 nM
CC(=O)N[C@H]1CSC(=O)[C@H](Cc2ccccc2)NC(=O)[C@H](CC(C)C)N(C)C(=O)[C@H](CO)NC(=O)[C@H](CO)NC1=O (Ac-CSS[NMeL]F; thioester 1-C) |  |  |  |  | IC50 [6]: > 30000 nM; IC50 [7]: > 30000 nM
CC[C@H](C)[C@H](NC(=O)c1ccc2c(c1)C1(OC2=O)c2ccc(O)cc2Oc2cc(O)ccc21)C(=O)N[C@@H](CC(N)=O)C(=O)N[C@H]1CSC(=O)[C@H](CC(C)C)NC(=O)[C@H](CC(C)C)NC(=O)[C@H](Cc2ccccc2)NC(=O)[C@H](C)NC1=O (6FAM-INCAFLL; thioester 3-C) |  |  |  |  | IC50 [8]: 22 nM
CC(=O)N[C@H]1CSC(=O)[C@H](Cc2ccccc2)NC(=O)[C@H](Cc2ccccc2)NC(=O)CCCCCCCCNC1=O | 3490 | 468 | 125 | 479 | 
CC(=O)N[C@H]1CNC(=O)[C@H](Cc2ccccc2)NC(=O)[C@H](Cc2ccccc2)NC(=O)CCCCCCCCNC1=O |  | 4740 | 2610 | 1340 | 
C#CCCC(=O)N[C@H](C(=O)N[C@@H](CC(N)=O)C(=O)N[C@H]1CSC(=O)[C@H](CC(C)C)NC(=O)[C@H](CC(C)C)NC(=O)[C@H](Cc2ccccc2)NC(=O)[C@H](C)NC1=O)[C@@H](C)CC (Pent4ynoyl-INCAFLL; thioester 3-C) | > 1000 | 1000 | > 1000 | > 1000 | 
CC(=O)N[C@H]1CSC(=O)[C@H](Cc2ccccc2)N(C)C(=O)[C@H](CC(C)C)NC(=O)CCCCNC1=O (Ac-C[Ava]L[NMeF]; thioester 1-C) |  |  |  |  | IC50 [6]: 1140 nM; IC50 [7]: 50700 nM
H-DSVCASYF-OH |  |  |  |  | Activity [1]: 9.8 U/mg
CC(=O)N[C@H]1CSC(=O)[C@H](Cc2ccccc2)NC(=O)[C@H](CC(C)C)NC(=O)[C@H](CO)NC(=O)CNC1=O (Ac-CGSLF; thioester 1-C) |  |  |  |  | IC50 [6]: 189 nM; IC50 [7]: 1160 nM
CC(=O)N[C@H]1CSC(=O)[C@H](Cc2ccccc2)NC(=O)[C@H](CC(C)C)NC(=O)[C@H](CO)NC(=O)[C@H](CO)N(C)C1=O (Ac-C[NMeS]SLF; thioester 1-C) |  |  |  |  | IC50 [6]: 639 nM; IC50 [7]: 7880 nM
CC[C@H](C)[C@@H]1NC(=O)[C@H](Cc2ccccc2)NC(=O)[C@H](CC(=O)O)NC(=O)[C@@H](NC(=O)[C@@H](NC(=O)[C@H](CO)NC(=O)[C@H](Cc2ccc(O)cc2)NC(=O)CCCC[C@@H]2SC[C@@H]3NC(=O)N[C@@H]32)[C@@H](C)O)CSC(=O)[C@H](CCSC)NC1=O (Biotin-YSTCDFIM; thioester 4-C) |  |  |  |  | IC50 [8]: 40 nM
CC[C@@H](C)[C@H](N)C(=O)N[C@H](CC(N)=O)C(=O)N(C)[C@@H]1CSC(=O)[C@@H](CC(C)C)N(C)C(=O)[C@@H](CC(C)C)NC(=O)[C@@H](Cc2ccccc2)NC(=O)[C@@H](CC(=O)O)NC1=O |  |  |  |  | IC50 [9]: 137 nM; IC50 [10]: 134 nM; IC50 [11]: 106 nM
CC(=O)N[C@H]1CNC(=O)[C@H](Cc2ccccc2)NC(=O)[C@H](Cc2ccccc2)NC(=O)COCCOCCNC1=O (Ac-[Dap][AEEA]FF; lactam 1-C) | > 10000 | > 10000 | > 10000 | > 10000 | 
CC(=O)N[C@H]1CSC(=O)[C@H](Cc2ccccc2)NC(=O)[C@H](CC(C)C)NC(=O)[C@H](CO)NC(=O)[C@H](CO)NC1=O (Ac-CSSLF; thioester 1-C) | 140 | 101 | 9.3 | 97 | 
CC(=O)N[C@H]1CSC(=O)[C@H](Cc2ccccc2)N(C)C(=O)[C@H](CC(C)C)NC(=O)[C@H](CO)NC(=O)[C@H](CO)NC1=O (Ac-CSSL[NMeF]; thioester 1-C) |  |  |  |  | IC50 [6]: > 30000 nM; IC50 [7]: > 30000 nM
CC(C)C[C@@H]1NC(=O)[C@H](Cc2ccc(O)cc2)NC(=O)[C@H](CC(N)=O)NC(=O)[C@H](CO)NC(=O)[C@@H](NC(=O)[C@@H]2CCCN2C(=O)[C@H](CC(N)=O)NC(=O)[C@H](Cc2ccc(O)cc2)NC(=O)[C@H](CCCCN)NC(=O)[C@H](CO)NC(=O)[C@H](C)NC(=O)[C@@H](N)CC(N)=O)CSC1=O (H-NASKYNPCSNYL; thioester 8-C) |  |  |  |  | IC50 [12]: 9.64 nM
CC[C@@H](C)[C@H](N)C(=O)N[C@H](CC(N)=O)C(=O)N(C)[C@@H]1CSC(=O)[C@@H](CC(C)C)N(C)C(=O)[C@@H](CC(C)C)NC(=O)CN(Cc2ccccc2)C(=O)[C@@H](CC(=O)O)NC1=O |  |  |  |  | IC50 [9]: 4.49 nM; IC50 [10]: 1.95 nM; IC50 [11]: 6.59 nM
C[C@H](N)C(=O)N[C@@H](CO)C(=O)N[C@@H](C)C(=O)N[C@H]1CSC(=O)[C@H](Cc2ccccc2)NC(=O)[C@H](Cc2ccc(O)cc2)NC(=O)[C@H](C)NC(=O)[C@H](C)NC1=O (H-ASACAAYF; thioester 4-C) |  |  |  |  | IC50 [12]: 2.84 nM
H-SVCASYF-OH |  |  |  |  | Activity [1]: 8.9 U/mg
CC(C)C[C@@H]1NC(=O)[C@H](Cc2ccc(O)cc2)NC(=O)[C@H](CO)NC(=O)[C@H](C)NC(=O)[C@@H](NC(=O)[C@@H]2CCCN2C(=O)[C@H](CC(N)=O)NC(=O)[C@H](Cc2ccc(O)cc2)NC(=O)[C@H](CCCCN)NC(=O)[C@H](C)NC(=O)[C@H](C)NC(=O)[C@@H](N)CC(N)=O)CSC1=O (H-NAAKYNPCASYL; thioester 8-C) |  |  |  |  | IC50 [12]: 34.3 nM
CC(=O)N[C@@H]1C/C=C\[C@H](Cc2ccccc2)NC(=O)[C@H](CC(C)C)NC(=O)[C@H](CO)NC(=O)[C@H](CO)NC1=O | > 10000 | > 10000 | > 10000 | > 10000 | 
C[C@H](N)C(=O)N[C@@H](CO)C(=O)N[C@@H](C)C(=O)N[C@H]1CSC(=O)[C@H](Cc2ccccc2)NC(=O)[C@H](Cc2ccc(O)cc2)NC(=O)[C@H](C)NC(=O)[C@H](CO)NC1=O (H-ASACSAYF; thioester 4-C) |  |  |  |  | IC50 [12]: 2.08 nM
CC(=O)N[C@H]1CNC(=O)[C@H](Cc2ccccc2)N(C)C(=O)[C@H](CC(C)C)NC(=O)[C@H](CO)NC(=O)[C@H](CO)NC1=O (Ac-[Dap]SSL[NMeF]; lactam 1-C) |  |  |  |  | IC50 [6]: 1390 nM; IC50 [7]: 167000 nM
CC(C)C[C@@H]1NC(=O)[C@H](CC(C)C)NC(=O)[C@H](Cc2ccccc2)NC(=O)[C@H](C)NC(=O)[C@@H](N)CNC1=O (H-[Dap]AFLL; lactam 1-C) | 0.189 | 1.5 | 0.216 | 13.9 | 
CC(=O)N[C@H]1CSC(=O)[C@H](Cc2ccccc2)NC(=O)[C@H](CC(C)C)NC(=O)[C@H](CO)N(C)C(=O)[C@H](CO)NC1=O (Ac-CS[NMeS]LF; thioester 1-C) |  |  |  |  | IC50 [6]: 319 nM; IC50 [7]: 1050 nM
H-GDSVCASYF-OH |  |  |  |  | Activity [1]: 11.2 U/mg
CC(=O)N[C@H]1CSC(=O)[C@H](Cc2ccccc2)NC(=O)[C@H](Cc2ccccc2)NC(=O)COCCOCCNC1=O (Ac-C[AEEA]FF; thioester 1-C) | 5940 | 181 | 332 | 583 | 
CC(C)[C@H](NC(=O)[C@@H](N)CO)C(=O)N[C@H]1CSC(=O)[C@H](Cc2ccccc2)NC(=O)[C@H](Cc2ccc(O)cc2)NC(=O)[C@H](CO)NC(=O)[C@H](C)NC1=O (H-SVCASYF; thioester 3-C) |  |  |  |  | Activity [1]: 16.1 U/mg
CC(=O)N[C@H]1CSC(=O)[C@H](Cc2ccccc2)NC(=O)[C@H](Cc2ccccc2)NC(=O)CCCCCCCNC1=O (Ac-C[Aoc]FF; thioester 1-C) | 985 | 340 | 34.8 | 495 | 

Further lines, with some results ahead:

IC50 [2] [nM] | IC50 [3] [nM] | IC50 [4] [nM] | IC50 [5] [nM] | Compound | also measured
3.87 | 4.88 | 0.387 | 6.47 | O=C1COCCOCCNC(=O)[C@H](NC(=O)Cc2ccccc2)CSC(=O)[C@H](Cc2cccc(Cl)c2)NC(=O)[C@H](CC2CCCC2)N1 | 
4.75 | 2.01 | 0.0918 | 17.9 | O=C1COCCOCCNC(=O)[C@H](NC(=O)Cc2ccccc2)CSC(=O)[C@H](Cc2cccc(F)c2)NC(=O)[C@H](CC2CCCC2)N1 | 
299 | > 1000 | 75.2 | > 1000 | CC[C@H](C)[C@H](N)C(=O)N[C@@H](CC(N)=O)C(=O)N[C@H]1CNC(=O)[C@H](CC(C)C)NC(=O)[C@H](CC(C)C)NC(=O)[C@H](Cc2ccccc2)NC(=O)[C@H](CC(=O)O)NC1=O (H-IN[Dap]DFLL; lactam 3-C) | 
 | 3940 | 573 | 2200 | CC(=O)N[C@H]1CNC(=O)[C@H](Cc2ccccc2)NC(=O)[C@H](Cc2ccccc2)NC(=O)CCCCCCCNC1=O (Ac-[Dap][Aoc]FF; lactam 1-C) | 
